Data: patent US4145444A, “Anti-inflammatory agent of benzoyl derivative” (priority 1977, dated 1979)
Where two headings read alike, the source gives them in different places.

Assays:
hind paws of male rats = experiment: Anti-inflammatory effect: acute carragheenin edema method; type: in vivo; conditions: for anti-inflammatory effect, inhibition rate (ED50), in words: rat, in vivo; for inhibition in vivo at 100 mg/kg: read-out: Anti-inf.: edema inhibition rate
Experimental: The edema was induced by subcutaneous injection of 1% carragheenin suspension in saline to the hind paws of male rats weighting 150 to 180 g. Each sample was orally given at the dosage of 100 mg/kg just before the inoculation of carragheenin.

[1] = system: adjuvant-induced arthritis; experiment: Chronic inflammation (adjuvant-induced arthritis): reduction in edema of the hind paws; type: in vivo, female rats of Sprague Drawley strain
Experimental: (§1) The effects of 1 4-n-butyl benzophenone and 2 4-n-butyl-2'-fluorobenzophenone against adjuvant-induced arthritis were studied.
(§2) For the study, adult female rats of Sprague Drawley strain weighing approximately 200 g were used. All rats received 0.1 ml of a suspension of dry heat-killed tubercle bacilli (human strains, commercial product of Difco Co.) in liquid paraffin (5 mg/ml, w/v) by a single intradermal injection into the tail.
The treatment of the animals by the test compounds were started fourteen days after injection of the adjuvant when arthritis developed sufficiently accompanying edema and erythema in paws. Each compound was orally given to animals daily for ten days. […] Phenylbutazone was used as the reference drug.
(§3) Evaluations were made using the following parameters.
(2) Relative reduction in edema of the hind paws.

[2] = Chronic inflammation (adjuvant-induced arthritis): body weight gain; type: in vivo, female rats of Sprague Drawley strain
Experimental: as §1, §2
The treatment of the animals by the test compounds were started fourteen days after injection of the adjuvant when arthritis developed sufficiently accompanying edema and erythema in paws. […] […] Phenylbutazone was used as the reference drug.
as §3

platelet = experiment: Blood platelet aggregation inhibiting effect (collagen-induced); type: cell-based, rabbits; conditions: Oryctolagus cuniculus, Platelet; 10^-4 mole, collagen inducer, rabbit PRP; read-out: Blood platelet agg. inh.: percentage inhibition of platelet aggregation
From the text: Male rabbits (Japan original white strain 3.3 to 3.6 kg) were anesthetized with Thiopental sodium and blood was sampled from the carotid artery.

thrombus = experiment: Inhibiting effect on thrombosis (by-pass between left juglar vein and right carotid artery, silk thread); type: in vivo, SD type male rates; conditions: Rattus norvegicus, read-out: Thrombosis inh.: thrombosis inhibition rate
In short: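 Arteriovenous shunt with silk thread and heparin saline, run as three successive 15-min circulations, with thrombus wet weight measured on the thread each time. Compound given orally in carboxymethyl cellulose suspension at 100 mg/kg 5 h before the first circulation. Inhibition rate derived against control circulations.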

male mice [3] = experiment: Analgesic effect: painful stretchings following intraperitoneal 0.7% acetic acid; conditions: Mus musculus, po, read-out: Analgesic: percentage diminition of times of painful stretching
Experimental: Each sample was orally administered in the dosage of 100 mg/kg before injection of acetic acid.

in vivo = conditions: mouse, in vivo, po
Experimental: (§4) Each sample was dissolved in olive oil or dispersed in 1% Tween 20 aqueous solution.

male mice [4] = experiment: in vivo; conditions: oral, male mice, within 72 hours (Table 2)
Experimental: as §4

[5] = Rattus norvegicus, 100 mg/kg oral, carragheenin edema, male rats (Table 2)
[6] = 100 mg/kg oral, 5 hours before first blood circulation, rats

Row | SMILES | inhibition in vivo at 100 mg/kg (hind paws of male rats; [5]) [%] | inhibition at 100 µM (platelet) [%] | inhibition in vivo at 100 mg/kg (thrombus; [6]) [%] | inhibition in vivo at 100 mg/kg (male mice [3]) [%] | also measured
1 | CCCCc1ccc(C(=O)c2ccccc2F)cc1 [Active ingredient No. 8, 4-n-butyl-2'-fluorobenzophenone] | – | – | – | – | anti-inflammatory effect, inhibition rate (ED50), in words (hind paws of male rats): especially high inhibition rate (ED50); Relative volume ratio of swelling in hind paws, average, 6 days ([1]; 50 mg/kg/day oral): 0.74; Relative volume ratio of swelling in hind paws, average, 10 days ([1]; 50 mg/kg/day oral): 0.76; Relative volume ratio of swelling in hind paws, average, 6 days ([1]; 100 mg/kg/day oral): 0.78; Relative volume ratio of swelling in hind paws, average, 10 days ([1]; 100 mg/kg/day oral): 0.73; Body weight gain, average, 0 days ([2]; 50 mg/kg/day oral): 222.6; Body weight gain, average, 6 days ([2]; 50 mg/kg/day oral): 223.0; Body weight gain, average, 10 days ([2]; 50 mg/kg/day oral): 232.0; Body weight gain, average, 0 days ([2]; 100 mg/kg/day oral): 211.8; Body weight gain, average, 6 days ([2]; 100 mg/kg/day oral): 205.8; Body weight gain, average, 10 days ([2]; 100 mg/kg/day oral): 214.4
2 | CCCCC1C(=O)N(c2ccccc2)N(c2ccccc2)C1=O [Phenylbutazone, reference compound] | – | – | – | – | Relative volume ratio of swelling in hind paws, average, 6 days ([1]; 50 mg/kg/day oral): 0.75; Relative volume ratio of swelling in hind paws, average, 10 days ([1]; 50 mg/kg/day oral): 0.75; Body weight gain, average, 0 days ([2]; 50 mg/kg/day oral): 215.6; Body weight gain, average, 6 days ([2]; 50 mg/kg/day oral): 207.7; Body weight gain, average, 10 days ([2]; 50 mg/kg/day oral): 214.3
3 | CCCCc1ccc(C(=O)c2ccccc2)cc1 [Active ingredient No. 19, 4-n-butyl benzophenone] | – | – | – | – | anti-inflammatory effect, inhibition rate (ED50), in words (hind paws of male rats): especially high inhibition rate (ED50); Relative volume ratio of swelling in hind paws, average, 6 days ([1]; 100 mg/kg/day oral): 0.97; Relative volume ratio of swelling in hind paws, average, 10 days ([1]; 100 mg/kg/day oral): 1.02; Relative volume ratio of swelling in hind paws, average, 6 days ([1]; 200 mg/kg/day oral): 0.76; Relative volume ratio of swelling in hind paws, average, 10 days ([1]; 200 mg/kg/day oral): 0.75; Body weight gain, average, 0 days ([2]; 100 mg/kg/day oral): 229.2; Body weight gain, average, 6 days ([2]; 100 mg/kg/day oral): 217.5; Body weight gain, average, 10 days ([2]; 100 mg/kg/day oral): 218.2; Body weight gain, average, 0 days ([2]; 200 mg/kg/day oral): 214.1; Body weight gain, average, 6 days ([2]; 200 mg/kg/day oral): 213.3; Body weight gain, average, 10 days ([2]; 200 mg/kg/day oral): 220.1
4 | Cc1cc(C)c(C(=O)c2ccccc2F)c(C)c1 [compound 11] | 62.3 | 16.5 | 42.9 | 13.9 | –
5 | CCCCCCc1ccc(C(=O)c2ccc(CCCC)cc2)cc1 [Active ingredient No. 5] | 46.3 | 15.3 | 20.3 | 12.1 | LD50 at 72 h (in vivo): 5000 mg/kg
6 | CCCCc1ccc(C(=O)c2ccccc2Cl)cc1 [compound 44] | 57.7 | 10.5 | 35.6 | 15.6 | –
7 | Cc1cc(C)c(C(=O)c2ccccc2)c(C)c1C [compound 79] | 33.2 | 26.8 | 31.5 | 20.8 | –
8 | CCCc1ccc(CCC)c(C(=O)c2ccccc2)c1 [compound 16] | 45.2 | 8.6 | 21.5 | 12.4 | –
9 | CCCCCCCc1ccc(C(=O)c2ccccc2)cc1 [compound 25] | 40.8 | 7.8 | 22.1 | 48.6 | –
10 | Cc1ccc(C(=O)c2ccccc2)c(C)c1 [compound 37] | 39.6 | 17.4 | 5.3 | 9.8 | –
11 | CCCCc1ccc(C(=O)c2ccccc2F)cc1 [compound 8] | 82.6 | 24 | 38 | 14.8 | –
12 | COc1ccc(C(=O)c2ccccc2)cc1 [compound 28] | – | 20.4 | – | 4.2 | inhibition in vivo at 100 mg/kg (hind paws of male rats; Rattus norvegicus, po): 44.1%; Acute toxicity LD50 (male mice [4]): > 10000 mg/kg; inhibition in vivo at 100 mg/kg (thrombus; po, 5 h): 7.3%
13 | CCCCCCCCc1ccc(C(=O)c2ccccc2)cc1 [compound 26] | 47.2 | 3.1 | 24.8 | 35.9 | –
14 | COc1ccc(C(=O)Cc2ccccc2)cc1 [compound 57] | 16.1 | 12.5 | 6.5 | 10.3 | –
15 | CCCCCCc1ccc(C(=O)c2ccc(CCC)cc2)cc1 [Active ingredient No. 6] | 44.2 | 17.8 | 15.9 | 14.5 | LD50 at 72 h (in vivo): 5000 mg/kg
16 | CCOc1ccc(C(=O)c2ccccc2)cc1 [compound 81] | 15.3 | 18.3 | 20.3 | 17.6 | –
17 | Cc1cc(C)c(C(=O)c2ccccc2C)c(C)c1 [Active ingredient No. 3] | 40 | 17.3 | 38.3 | 11.3 | ED50 (hind paws of male rats; Rattus norvegicus, oral, carragheenin edema, male rats (Table 2), read-out: 50% inhibition ED50 (values in brackets)): 290 mg/kg; LD50 at 72 h (in vivo): 1500 mg/kg
18 | CCCCCc1ccc(C(=O)c2ccc(C)cc2)cc1 [compound 84] | 28.4 | 8.6 | 16 | 15.3 | –
19 | CCCOc1ccc(C(=O)Cc2ccccc2)cc1 [compound 58] | 15.3 | 20.1 | 14.6 | 19.8 | –
20 | CCCCCCCCCCCCc1ccc(C(=O)c2ccccc2)cc1 [compound 69] | 12 | 13.5 | 12.7 | 6.7 | –
21 | CCc1cc(CC)c(C(=O)c2ccccc2)c(CC)c1 [compound 13] | 38.9 | 14.3 | 20.5 | 15.8 | –
22 | O=C(c1ccccc1)c1ccccc1C(=O)c1ccccc1 [compound 113] | 38.7 | 25.8 | 30.4 | 14.5 | –
23 | CCCCCCc1ccc(C(=O)C(=O)c2ccccc2)cc1 [compound 56] | 14.9 | 20.3 | 15.1 | 20.5 | –
